Laboratory results published in patent US7754694B2, “Pyrrolo[2, 1-C][1, 4]benzodiazepine-glycoside prodrug useful as a selective anti tumor agent” (priority 2007, dated 2010).

What was measured:
A375 cells = assay: Cell cycle progression by FACS (subG1 and G2/M population) in A375 cells; type: cell-based, human; details: 1a 42 μM, 1b 23.4 μM
Excerpt: (§1) The cytotoxic effects of the newly synthesized compounds 1a and 1b and their respective PBD imines were examined by cell cycle progression experiments on human tumor cells, by using fluorescence-activated cell sorting (FACS) analysis, in the absence and in the presence of β-galactosidase enzyme. In the primary flow cytometric study, the DNA content of the cells was used as a major determinant for cell count. The subG1 population, a conspicuous indicator for cell death, presumably apoptosis, and G2/M population was also determined in HepG2 and A375 cell lines.

E. coli β-galactosidase = E. coli β-galactosidase (Escherichia coli, UniProt P00722); type: biochemical; details: in the presence of β-galactosidase, 60-90 minutes, 37° C., pH 7.2 (phosphate buffer)
Description: FIG. 1. A drawing illustrating the effect of the prodrug 1a 1 μmole was treated with 2 units of E. coli β galactosidase enzyme and the progress of the hydrolysis was monitored by reverse phase HPLC. HPLC conditions: C18 Reverse phase column. Mobile phase 40:60 CH3CN/ H2O, flow rate of 1 ml/ min. UV detection: wave length 254 nm.
The prodrug 1a 1 μmole was treated with 2 units of E. coli β galactosidase enzyme and the progress of the hydrolysis was monitored by reverse phase HPLC. The results are presented in the form of a graph as illustrated in FIG. 1. Biological Studies Of The Prodrugs

HepG2 cells = assay: Cell cycle progression by FACS (subG1 and G2/M population) in HepG2 cells; type: cell-based, human
Excerpt: as §1
Next we evaluated the prodrugs for their activation efficiency by intracellular β-galactosidase, in human liver cancer, HepG2 cells.

Chain of E. coli β-galactosidase (P00722 2-1024): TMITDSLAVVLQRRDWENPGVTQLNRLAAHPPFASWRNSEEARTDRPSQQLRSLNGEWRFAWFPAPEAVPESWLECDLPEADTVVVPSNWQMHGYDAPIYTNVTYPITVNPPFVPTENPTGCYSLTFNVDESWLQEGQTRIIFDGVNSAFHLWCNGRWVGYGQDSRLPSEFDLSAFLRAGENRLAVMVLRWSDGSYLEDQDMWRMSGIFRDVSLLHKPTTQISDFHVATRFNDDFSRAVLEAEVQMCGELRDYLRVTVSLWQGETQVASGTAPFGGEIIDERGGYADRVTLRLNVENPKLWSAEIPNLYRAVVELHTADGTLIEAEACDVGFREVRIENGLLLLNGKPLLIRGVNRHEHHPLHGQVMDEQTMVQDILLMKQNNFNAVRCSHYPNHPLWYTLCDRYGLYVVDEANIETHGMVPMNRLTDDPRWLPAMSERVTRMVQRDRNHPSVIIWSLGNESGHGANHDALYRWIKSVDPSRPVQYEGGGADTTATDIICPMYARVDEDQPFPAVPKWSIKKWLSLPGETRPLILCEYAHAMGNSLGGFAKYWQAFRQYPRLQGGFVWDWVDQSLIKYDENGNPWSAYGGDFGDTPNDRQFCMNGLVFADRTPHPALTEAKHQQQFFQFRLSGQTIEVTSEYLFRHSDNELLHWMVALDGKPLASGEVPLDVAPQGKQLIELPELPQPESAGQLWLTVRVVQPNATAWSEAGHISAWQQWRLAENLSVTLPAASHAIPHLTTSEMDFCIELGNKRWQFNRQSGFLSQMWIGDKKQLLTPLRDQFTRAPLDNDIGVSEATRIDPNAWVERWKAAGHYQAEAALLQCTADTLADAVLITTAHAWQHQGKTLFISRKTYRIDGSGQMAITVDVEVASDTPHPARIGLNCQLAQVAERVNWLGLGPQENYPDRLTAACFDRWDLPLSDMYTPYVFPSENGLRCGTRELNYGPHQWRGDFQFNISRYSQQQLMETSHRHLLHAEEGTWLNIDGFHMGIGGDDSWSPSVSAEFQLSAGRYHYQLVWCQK

SMILES: COc1cc2c(cc1OCCCOc1cc3c(cc1OC)C(=O)N1CCC[C@H]1[C@H](O)N3C(=O)OCc1ccc(O[C@@H]3O[C@H](CO)[C@H](O)[C@H](O)[C@H]3O)c([N+](=O)[O-])c1)N(C(=O)OCc1ccc(O[C@@H]3O[C@H](CO)[C@H](O)[C@H](O)[C@H]3O)c([N+](=O)[O-])c1)[C@@H](O)[C@@H]1CCCN1C2=O [Compound 1b, 1,1′-[[(propane-1,3-diyl)dioxy]-bis(11S,11aS)-10-(4-β-D -galactopyranosyloxy-3-nitrophenyl)methoxycarbonyl-11-hydroxy-7-methoxy-1,2,3,-10,11,11a-hexahydro-5H-pyrrolo[2,1-c][1,4]-benzodiazepin-5-one]]
- apoptosis / cell death in A375 cells with E. coli β-galactosidase (A375 cells; A375, with E. coli β-galactosidase): apoptosis identical to that of the parent drugs 6a and 6b respectively
- amount of cell death in A375 cells in the absence of the enzyme (A375 cells; A375, without β-galactosidase): insignificant
- activation of the prodrug by β-galactosidase (E. coli β-galactosidase): activated to their corresponding carbinolamines
- cytometric profile / apoptotic response in HepG2 cells in the presence of E. coli β-galactosidase (HepG2 cells; HepG2, with added E. coli β-galactosidase): profile comparable to that of the parent drug 6b
- cytometric profile / apoptotic response in HepG2 cells in the absence of E. coli β-galactosidase (HepG2 cells; HepG2, without added enzyme (intracellular β-galactosidase)): block in the G2/M phase of the cell cycle
